From ChEMBL document CHEMBL1201862, “PubChem BioAssay data set” (2004)
Active and inactive are the calls of the source.

How the values were obtained:
[1] = AlphaScreen signal interference compounds, dose response, artefact control for ARNT-TACC3 interaction inhibitor project, biochemical, luminescence, cherry-pick (AID 651705); format: functional;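 note: AlphaScreen bead proximity signal that flags compounds interfering with the detection technology; potency reflects signal decrease which marks the compound as an assay artifact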
Melanocortin receptor 4 = Melanocortin receptor 4 (Homo sapiens, UniProt P32245); format: functional, cell-based;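 note: Cell-based assay with luminescence read-out, confirmatory dose-response testing for agonist activity of biased ligands at MC4R; human U2OS cells with tagged receptor and beta-arrestin; potency of agonists that increase receptor coupling to beta-arrestin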
Melanocortin receptor 4, sequence (P32245 whole entry): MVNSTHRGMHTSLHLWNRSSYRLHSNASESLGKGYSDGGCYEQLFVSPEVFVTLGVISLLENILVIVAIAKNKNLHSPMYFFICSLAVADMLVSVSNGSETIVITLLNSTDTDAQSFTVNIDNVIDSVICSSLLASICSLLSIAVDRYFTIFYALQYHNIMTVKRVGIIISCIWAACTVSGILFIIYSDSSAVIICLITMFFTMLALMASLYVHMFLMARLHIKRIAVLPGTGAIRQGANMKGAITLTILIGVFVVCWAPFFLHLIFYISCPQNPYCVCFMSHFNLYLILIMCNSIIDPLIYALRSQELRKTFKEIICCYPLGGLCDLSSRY

[2] = target: T1, Apoptotic protease-activating factor 1 (Homo sapiens, UniProt O14727); test: SAR analysis of small molecule Activators of Apaf-1 in a Fluorescent assay.; format: functional; conditions: read-out: EC50_Mean;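 note: caspase-3 cleavage of fluorogenic Rh110 DEVD substrate downstream of apoptosome activation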
T1 sequence (O14727 whole entry): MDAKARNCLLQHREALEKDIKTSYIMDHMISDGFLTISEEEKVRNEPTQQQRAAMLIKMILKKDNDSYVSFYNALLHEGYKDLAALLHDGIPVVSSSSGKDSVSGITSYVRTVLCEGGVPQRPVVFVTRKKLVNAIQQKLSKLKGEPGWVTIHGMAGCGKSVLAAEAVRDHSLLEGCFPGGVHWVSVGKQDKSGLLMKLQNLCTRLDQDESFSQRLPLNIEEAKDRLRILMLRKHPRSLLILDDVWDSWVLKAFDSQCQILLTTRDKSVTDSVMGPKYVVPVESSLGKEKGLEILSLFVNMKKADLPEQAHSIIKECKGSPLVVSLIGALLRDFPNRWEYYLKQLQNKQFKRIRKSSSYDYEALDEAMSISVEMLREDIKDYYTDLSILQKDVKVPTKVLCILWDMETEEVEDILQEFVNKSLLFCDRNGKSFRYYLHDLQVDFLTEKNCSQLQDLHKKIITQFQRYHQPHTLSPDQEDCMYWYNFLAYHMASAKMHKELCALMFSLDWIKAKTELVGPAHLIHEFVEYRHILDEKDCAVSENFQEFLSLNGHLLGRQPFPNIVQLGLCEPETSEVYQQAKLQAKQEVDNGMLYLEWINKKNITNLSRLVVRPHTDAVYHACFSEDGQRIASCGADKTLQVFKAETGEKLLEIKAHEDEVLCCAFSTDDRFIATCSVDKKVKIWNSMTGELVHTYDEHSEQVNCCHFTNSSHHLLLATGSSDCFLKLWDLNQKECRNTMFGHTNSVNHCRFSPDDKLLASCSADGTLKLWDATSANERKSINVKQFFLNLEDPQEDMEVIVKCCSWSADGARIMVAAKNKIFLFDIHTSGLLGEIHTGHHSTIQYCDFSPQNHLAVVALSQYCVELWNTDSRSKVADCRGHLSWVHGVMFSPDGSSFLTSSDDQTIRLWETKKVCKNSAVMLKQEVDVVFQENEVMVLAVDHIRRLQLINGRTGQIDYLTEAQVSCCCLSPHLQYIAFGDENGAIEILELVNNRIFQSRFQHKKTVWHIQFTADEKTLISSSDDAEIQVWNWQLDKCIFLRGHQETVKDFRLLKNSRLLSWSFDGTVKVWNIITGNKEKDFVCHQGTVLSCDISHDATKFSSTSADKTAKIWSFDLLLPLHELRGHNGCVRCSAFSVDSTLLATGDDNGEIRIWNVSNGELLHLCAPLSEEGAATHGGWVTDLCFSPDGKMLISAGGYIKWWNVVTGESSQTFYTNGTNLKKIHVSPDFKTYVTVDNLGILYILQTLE

P388/ADR = test: cells; format: functional; conditions: Mus musculus
SN12K1 = test: cells; format: functional; conditions: Homo sapiens
P388 = test: cells; format: functional; conditions: Mus musculus
[3] = miR-122 activators in hepatoma reporter cells, dose response, cell-based, Huh7 psiCHECK-miR122, Renilla luciferase, cherry-picked (AID 651956); format: functional;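 note: huh7 hepatoma cells stably carrying a psiCHECK-2 miR-122 sensor plasmid; renilla luciferase signal reporting endogenous miR-122 activity after 48 h compound exposure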
Interleukin-8 [4] = target: T2, Interleukin-8 (Homo sapiens, UniProt P10145); test: Dose Response confirmation of uHTS small molecule hits for cystic fibrosis induced NFkb Inhibitors in a TNFa-induced IL8 counterscreen.; format: functional; conditions: read-out: IC50_Mean
T2 sequence (P10145 whole entry): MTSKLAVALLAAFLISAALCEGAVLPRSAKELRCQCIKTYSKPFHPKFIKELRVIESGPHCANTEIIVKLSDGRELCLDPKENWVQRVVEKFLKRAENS

Interleukin-8 [5] = target: T2, Interleukin-8; test: Dose Response confirmation of uHTS small molecule hits for cystic fibrosis induced NFkb Inhibitors in a PAF-induced IL8 counterscreen.; format: functional; conditions: read-out: IC50_Mean
Paired box protein Pax-8 = Paired box protein Pax-8 (Homo sapiens, UniProt Q06710); test: inhibitors of PAX8-driven TPO luciferase reporter, dose response, RMG-I cells, cherry-pick (AID 687027); format: functional, cell-based;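 note: luciferase reporter driven by Pax8 target thyroperoxidase promoter measured by SteadyGlo luminescence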
Paired box protein Pax-8, sequence (Q06710 whole entry): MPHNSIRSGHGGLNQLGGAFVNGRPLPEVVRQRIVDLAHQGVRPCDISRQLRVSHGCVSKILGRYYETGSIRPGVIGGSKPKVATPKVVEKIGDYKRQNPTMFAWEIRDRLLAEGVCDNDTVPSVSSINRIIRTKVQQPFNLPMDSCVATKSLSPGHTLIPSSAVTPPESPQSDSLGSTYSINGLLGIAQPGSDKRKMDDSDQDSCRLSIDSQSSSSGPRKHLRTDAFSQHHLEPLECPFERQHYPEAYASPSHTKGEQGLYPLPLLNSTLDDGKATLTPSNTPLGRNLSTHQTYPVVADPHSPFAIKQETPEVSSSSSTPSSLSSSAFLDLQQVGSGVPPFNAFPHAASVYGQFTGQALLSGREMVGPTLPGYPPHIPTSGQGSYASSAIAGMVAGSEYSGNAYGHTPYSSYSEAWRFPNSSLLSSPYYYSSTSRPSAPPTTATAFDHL

SMILES | GI50 (P388/ADR) | GI50 (SN12K1) | GI50 (P388) | other results
COc1cc(-c2nnc(NC(=O)CS(=O)(=O)c3ccc(F)cc3)o2)cc(OC)c1OC | – | – | – | AC50 [1]: 102 µM (active)
NC(c1ccccc1)c1csc(NC(=O)Nc2ccccc2Oc2ccccc2)n1 (configuration not stated) | – | – | – | EC50 (Melanocortin receptor 4): > 89.2 µM (inactive)
Cc1ccc(N2C(=O)CC3(CC(c4ccc(Br)cc4)=NO3)C2=O)cc1 (configuration not stated) | – | – | – | EC50 [2]: > 100 µM (inactive)
COCCOCOc1ccc(OCc2ccccc2)cc1 | 24 µM (inactive) | > 100 µM (inactive) | 31.3 µM (inactive) | –
O=C(O)[C@@H]1COC(c2ccccc2C(F)(F)F)=N1 | – | – | – | EC50 [2]: > 100 µM (inactive)
COc1cc2c(cc1Oc1ccc(OC)c3c1CC1c4c(cc(OC)c(OC)c4-3)CCN1C)CC1c3c(cc(OC)c(OC)c3-2)CCN1C (configuration not stated) | 1.87 µM (inactive) | 0.424 µM (active) | 1.77 µM (inactive) | –
Cc1ccccc1-c1nc2c(C(=O)NCCN(C)C)cccc2[nH]1 | 26.5 µM (inactive) | 30.5 µM (inactive) | 16.3 µM (inactive) | –
COc1ccc(C#Cc2ccc3c(c2)O[C@H](CN(C)C(=O)CN2CCOCC2)[C@H](C)CN([C@@H](C)CO)S3(=O)=O)cc1 | – | – | – | AC50 [3]: 29.9 µM (active)
C=C1C(=O)O[C@@H]2[C@H]1CC[C@H](C)[C@]1(O)CCC(=O)[C@@]21C [CORONOPILIN] | – | – | – | IC50 (Interleukin-8 [4]): 40.5 µM (inactive); IC50 (Interleukin-8 [5]): 7.49 µM (active); AC50 (Paired box protein Pax-8): 5.43 µM (active)
